From US20240254087A1, “SELECTIVE, PARTIAL, AND ARRESTIN-BIASED 5-HT2A AGONISTS WITH UTILITY IN VARIOUS DISORDERS” (Saint Joseph's University, priority 2021, published 2024)
Entries after “also recorded” stand apart in the source; their conditions may differ. Read-outs that look alike come from different tables or passages of the source.

Tests used:
male C57BL/6J mice = assay: Head-twitch response (HTR) in mice; type: in vivo, mouse; conditions: for ED50: Mus musculus
Outline: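 Head twitches in male C57BL/6J mice (6-8 weeks) carrying head-mounted magnets were detected with a magnetometer coil around a 12-cm glass cylinder during the dark phase. Coil signal was low-pass filtered at 2 kHz and digitized at 20 kHz. Counts were analyzed by one-way ANOVA with Dunnett's post hoc test.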

5-HT5a = 5-HT5a (Homo sapiens, UniProt P47898); assay: Competitive radioligand binding (NIMH PDSP)
5-HT7 = 5-HT7 (Homo sapiens, UniProt P34969); assay: Competitive radioligand binding (NIMH PDSP)
5-HT6 = 5-HT6 (Homo sapiens, UniProt P50406); assay: Competitive radioligand binding (NIMH PDSP)
5-HT2C = molecular target: T1, 5-HT2C (Homo sapiens, UniProt P28335); assay: BRET Gq dissociation, 5-HT2C; type: cell-based; design: expressed in transfected cells; host or cells: HEK293T, transient; conditions: for Emax: read-out: 5-HT2C Gq Dissociation (BRET) EMAX ± SEM (%5-HT)
T1 sequence (P28335 33-458): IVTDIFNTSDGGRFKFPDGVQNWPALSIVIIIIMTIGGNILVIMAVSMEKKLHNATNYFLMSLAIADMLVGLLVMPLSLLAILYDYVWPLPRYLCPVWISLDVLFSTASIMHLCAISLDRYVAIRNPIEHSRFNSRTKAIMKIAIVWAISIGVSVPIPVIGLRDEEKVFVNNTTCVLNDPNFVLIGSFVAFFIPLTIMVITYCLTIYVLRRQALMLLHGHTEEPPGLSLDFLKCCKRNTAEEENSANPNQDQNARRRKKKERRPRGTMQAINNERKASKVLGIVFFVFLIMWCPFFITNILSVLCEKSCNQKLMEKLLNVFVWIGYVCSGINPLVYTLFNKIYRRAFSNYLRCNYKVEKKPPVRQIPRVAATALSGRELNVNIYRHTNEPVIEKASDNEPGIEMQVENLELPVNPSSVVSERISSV

5-HT2B = 5-HT2B (Homo sapiens, UniProt P41595); assay: BRET Gq dissociation, 5-HT2B; type: cell-based; design: expressed in transfected cells; host or cells: HEK293T, transient; conditions: for Emax: read-out: 5-HT2B Gq Dissociation (BRET) EMAX ± SEM (%5-HT)
5-HT2A = 5-HT2A (Homo sapiens, UniProt P28223); assay: cell-based; design: expressed in transfected cells; host or cells: HEK293T, transient; conditions: for Emax: read-out: 5-HT2A β-arrestin Emax (% 5-HT), BRET, mean ± SEM
[1] = SC, except DOI and 25D-NBOMe IP
[2] = read-out: HTR ED50 mg/kg (95% CI), SC, except DOI and 25D-NBOMe IP
[3] = read-out: HTR ED50 μmol/kg (95% CI), SC, except DOI and 25D-NBOMe IP

5-HT7, sequence (P34969 whole entry, species assumed): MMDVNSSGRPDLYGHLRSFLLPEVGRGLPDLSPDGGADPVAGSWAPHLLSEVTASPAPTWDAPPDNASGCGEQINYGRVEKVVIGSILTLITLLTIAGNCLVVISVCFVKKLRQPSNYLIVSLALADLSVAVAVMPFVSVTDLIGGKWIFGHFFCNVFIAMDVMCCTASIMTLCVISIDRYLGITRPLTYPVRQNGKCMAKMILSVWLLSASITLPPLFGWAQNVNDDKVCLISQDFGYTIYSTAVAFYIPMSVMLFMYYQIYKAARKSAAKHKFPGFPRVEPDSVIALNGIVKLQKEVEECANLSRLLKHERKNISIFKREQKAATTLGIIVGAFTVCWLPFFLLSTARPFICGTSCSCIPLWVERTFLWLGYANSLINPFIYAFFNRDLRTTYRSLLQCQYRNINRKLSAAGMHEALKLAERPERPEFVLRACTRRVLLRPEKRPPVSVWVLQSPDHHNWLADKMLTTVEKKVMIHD
5-HT2A, sequence (P28223 whole entry): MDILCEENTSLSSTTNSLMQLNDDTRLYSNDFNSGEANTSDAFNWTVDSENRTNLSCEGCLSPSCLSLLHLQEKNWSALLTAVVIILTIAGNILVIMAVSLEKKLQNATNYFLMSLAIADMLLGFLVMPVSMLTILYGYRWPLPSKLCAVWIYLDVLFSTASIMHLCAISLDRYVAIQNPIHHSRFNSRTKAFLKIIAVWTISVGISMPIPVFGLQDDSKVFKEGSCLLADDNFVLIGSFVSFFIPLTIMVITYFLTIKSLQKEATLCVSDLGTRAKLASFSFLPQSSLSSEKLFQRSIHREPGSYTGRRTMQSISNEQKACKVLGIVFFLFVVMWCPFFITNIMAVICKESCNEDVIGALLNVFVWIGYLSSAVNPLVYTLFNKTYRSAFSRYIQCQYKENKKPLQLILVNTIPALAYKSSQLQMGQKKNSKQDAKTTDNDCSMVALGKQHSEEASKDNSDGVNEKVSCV
5-HT2B, sequence (P41595 whole entry): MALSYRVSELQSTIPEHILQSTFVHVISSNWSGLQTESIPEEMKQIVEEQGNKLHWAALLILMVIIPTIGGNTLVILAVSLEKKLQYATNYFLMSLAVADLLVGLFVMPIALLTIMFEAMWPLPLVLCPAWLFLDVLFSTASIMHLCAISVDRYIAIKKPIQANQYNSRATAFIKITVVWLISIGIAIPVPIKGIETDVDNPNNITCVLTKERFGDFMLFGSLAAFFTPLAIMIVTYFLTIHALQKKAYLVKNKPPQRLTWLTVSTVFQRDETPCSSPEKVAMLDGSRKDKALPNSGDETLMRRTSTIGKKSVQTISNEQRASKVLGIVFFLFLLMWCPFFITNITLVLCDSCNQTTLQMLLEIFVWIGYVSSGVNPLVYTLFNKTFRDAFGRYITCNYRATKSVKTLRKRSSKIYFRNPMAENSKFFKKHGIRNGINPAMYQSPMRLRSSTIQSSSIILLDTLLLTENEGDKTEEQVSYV
5-HT6, sequence (P50406 whole entry, species assumed): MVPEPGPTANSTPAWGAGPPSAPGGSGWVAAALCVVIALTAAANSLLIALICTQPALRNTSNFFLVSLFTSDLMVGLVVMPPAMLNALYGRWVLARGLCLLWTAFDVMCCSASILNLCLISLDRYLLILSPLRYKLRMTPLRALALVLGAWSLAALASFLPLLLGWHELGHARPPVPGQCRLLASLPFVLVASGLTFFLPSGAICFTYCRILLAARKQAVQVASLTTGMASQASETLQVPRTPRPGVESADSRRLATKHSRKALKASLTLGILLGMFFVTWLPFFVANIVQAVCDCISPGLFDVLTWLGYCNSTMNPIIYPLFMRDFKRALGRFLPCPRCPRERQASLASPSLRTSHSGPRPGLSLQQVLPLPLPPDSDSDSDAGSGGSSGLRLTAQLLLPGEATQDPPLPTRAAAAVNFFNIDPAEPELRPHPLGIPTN
5-HT5a, sequence (P47898 whole entry, species assumed): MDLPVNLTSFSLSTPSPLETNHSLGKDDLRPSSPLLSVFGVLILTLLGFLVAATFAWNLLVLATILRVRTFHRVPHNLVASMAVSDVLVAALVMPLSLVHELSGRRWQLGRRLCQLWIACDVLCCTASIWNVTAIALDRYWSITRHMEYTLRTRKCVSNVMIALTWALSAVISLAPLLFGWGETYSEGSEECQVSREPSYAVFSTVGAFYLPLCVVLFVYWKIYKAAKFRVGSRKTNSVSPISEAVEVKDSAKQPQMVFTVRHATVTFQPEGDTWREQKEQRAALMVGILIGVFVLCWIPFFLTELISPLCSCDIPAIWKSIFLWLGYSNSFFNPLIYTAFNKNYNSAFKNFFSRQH

SMILES | Induction of the HTR in mice (in words) (male C57BL/6J mice) | Max HTR response during a 30-min assessment (maximum counts ÷ baseline response) (male C57BL/6J mice) | EC50 (5-HT2C) [µM] | Emax (5-HT2C) [%] | ED50 (male C57BL/6J mice; [2]) [mg/kg] | Emax (5-HT2A) [%] | Ki (5-HT5a) [µM] | Ki (5-HT7) [µM] | Ki (5-HT6) [µM] | EC50 (5-HT2B) [µM] | Emax (5-HT2B) [%] | also measured
COc1cc([N+](=O)[O-])c(OC)cc1CCNCc1ccccc1OC(F)(F)F [25N-NBOCF3 (12)] | do not induce the HTR | 3.9-fold increase |  |  |  |  |  |  |  |  |  | HTR ED50 μmol/kg (95% CI) (male C57BL/6J mice; [1]): 13.5 (6.81-26.8) μmol/kg; HTR ED50 mg/kg (95% CI) (male C57BL/6J mice; [1]): 5.90 (2.97-11.7) mg/kg; 5-HT5a pKi affinity (Ki ± SEM) (5-HT5a): 5.80; 5-HT7 pKi affinity (Ki ± SEM) (5-HT7): <5; 5-HT6 pKi affinity (Ki ± SEM) (5-HT6): 6.12
COc1cc([N+](=O)[O-])c(OC)cc1CCNCc1cccc2ccccc12 [25N-N-1-Nap (16), [2-(2,5-dimethoxy-4-nitrophenyl)ethyl][(naphthalen-1-yl)methyl]amine] | failed to induce the HTR | 1.2-fold increase | 0.0186 | 34.1 ± 4.4 | > 30 | 78.2 ± 1.8 | 1.1 | 0.186 | 0.0794 |  |  | 5-HT2B Gq Dissociation (BRET) EMAX ± SEM (%5-HT) (5-HT2B): No activity; 5-HT2B Gq Dissociation (BRET) pEC50 ± SEM (5-HT2B): No activity
COc1cc([N+](=O)[O-])c(OC)cc1CCNCc1cccc(C)c1O [25N-NB-2-OH-3-Me (18), 2-({[2-(2,5-dimethoxy-4-nitrophenyl)ethyl]amino}methyl)-6-methylphenol] | failed to induce the HTR; also recorded: do not induce the HTR | 1.0-fold increase | 0.00214 | 45.8 ± 2.4 | > 10 | 131 | 0.501 | 0.871 | 0.209 |  |  | 5-HT2B Gq Dissociation (BRET) EMAX ± SEM (%5-HT) (5-HT2B): No activity; 5-HT2B Gq Dissociation (BRET) pEC50 ± SEM (5-HT2B): No activity; Difference in Emax (β-arrestin vs Gq) (5-HT2A; BRET): 81%; 5-HT2A β-arrestin Emax (% 5-HT) (5-HT2A; BRET, mean ± SEM): 130.7 ± 4.0 % 5-HT
COc1cc([N+](=O)[O-])c(OC)cc1CCNCc1ccccc1[N+](=O)[O-] [25N-NBNO2 (15), [2-(2,5-dimethoxy-4-nitrophenyl)ethyl][(2-nitrophenyl)methyl]amine] | lacked a HTR; also recorded: failed to induce a HTR; also recorded: do not induce the HTR | 1.9-fold increase | 0.148 | 61.3 ± 4.4 | > 100 |  | > 10 | > 10 | > 10 |  |  | 5-HT2B Gq Dissociation (BRET) EMAX ± SEM (%5-HT) (5-HT2B): No activity; 5-HT2B Gq Dissociation (BRET) pEC50 ± SEM (5-HT2B): No activity
COc1cc([N+](=O)[O-])c(OC)cc1CCNCc1ccccc1C(F)(F)F [25N-NBCF3 (14), [2-(2,5-dimethoxy-4-nitrophenyl)ethyl]({[2-(trifluoromethyl)phenyl]methyl}) amine] | lacked a HTR; also recorded: failed to induce a HTR; also recorded: do not induce the HTR | 2.6-fold increase |  |  | > 30 |  | > 10 | > 10 | 0.407 |  |  | 
COc1cc([N+](=O)[O-])c(OC)cc1CCNCc1ccccc1 [25N-NB (2), Benzyl[2-(2,5-dimethoxy-4-nitrophenyl)ethyl]amine] |  | 9.1-fold increase | 0.00851 | 89.4 ± 2.3 | 1.25 | 115 ± 4.1 |  |  |  | 0.038 | 32.6 ± 2.3 | ED50 (male C57BL/6J mice; [3]): 3.53 µmol/kg
COc1cc([N+](=O)[O-])c(OC)cc1CCNCc1cccc(O)c1 [25N-NB-3-OH (21), 3-({[2-(2,5-dimethoxy-4-nitrophenyl)ethyl]amino}methyl)phenol] | inactive in the HTR | 1.7-fold increase |  |  | > 30 | 119 ± 5.2 | > 10 | > 10 | 0.0692 |  |  | Induction of the HTR in mice (in words) (male C57BL/6J mice; listed as 25N—NB-3-HO (21)): do not induce the HTR
COc1cc([N+](=O)[O-])c(OC)cc1CCN [2C-N (1), 2-(2,5-dimethoxy-4-nitrophenyl)ethan-1-amine, reference compound] |  |  | 0.0126 | 78.4 ± 2.5 |  | 83.8 ± 2.5 | > 10 | > 10 | 0.251 | 0.0741 | 87.7 ± 2.8 | 
COc1cc([N+](=O)[O-])c(OC)cc1CCNCc1ccccc1-c1ccccc1 [25N-NBPh (17), ({[1,1′-biphenyl]-2-yl}methyl)[2-(2,5-dimethoxy-4-nitrophenyl)ethyl]amine] | lacked a HTR | 2.1-fold increase | 0.646 | 96.9 ± 10 | > 100 | 109 ± 2.8 |  |  |  | 0.316 | 47 ± 5.5 | 
COc1cc([N+](=O)[O-])c(OC)cc1CCNCc1ccccc1OC [25N-NBOMe (4), [2-(2,5-dimethoxy-4-nitrophenyl)ethyl] [(2-methoxyphenyl)methyl]amine] |  | 15.6-fold increase | 0.000302 | 112 ± 2.8 | 0.11 | 136 ± 3.8 | > 10 | > 10 | 0.055 | 0.00389 | 61.8 ± 2.3 | ED50 (male C57BL/6J mice; [3]): 0.29 µmol/kg
COc1cc([N+](=O)[O-])c(OC)cc1CCNCc1cccc(C)c1 [25N-NB-3-Me (22), [2-(2,5-dimethoxy-4-nitrophenyl)ethyl][(3-methylphenyl)methyl]amine] |  |  |  |  |  | 94.7 ± 4.2 |  |  |  |  |  | 
COc1cc([N+](=O)[O-])c(OC)cc1CCNCc1cccc(F)c1OC [25N-NB-2-MeO-3-F (19), [2-(2,5-dimethoxy-4-nitrophenyl)ethyl][(3-fluoro-2-methoxyphenyl)methyl]amine] |  |  |  |  |  | 120 ± 3.3 | 2.88 | > 10 | > 10 |  |  | 
COc1cc([N+](=O)[O-])c(OC)cc1CCNCc1ccccc1I [25N-NBI (10)] |  | 3.0-fold increase | 0.0871 | 71.5 ± 2.2 | 4.94 |  | > 10 | > 10 | 0.38 | 0.0295 | 21.8 ± 2.3 | ED50 (male C57BL/6J mice; [3]): 10.3 µmol/kg
